Source: ChEMBL document CHEMBL1201862, “PubChem BioAssay data set” (2004)
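Growth conditions: 96-well plates. Treatment: test compound, 48 hours, 5 concentrations. Analysis: linear interpolation between bracketing concentrations; unreached endpoints set to highest concentration. GI50 = concentration required for 50% inhibition of growth.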 The source made the active and inactive calls. Cut-off read from the data, not from the text of the source: active = GI50 up to about 1.1 µM and inactive = higher.

Assays:
Test in all cases: NCI tumour cell line growth inhibition, 48 h
ACHN = system: ACHN
CCRF-CEM = system: CCRF-CEM
DU-145 = system: DU-145
EKVX = system: EKVX
HCT-116 = system: HCT-116
HOP-92 = system: HOP-92
K562 = system: K562
MDA-MB-435 = system: MDA-MB-435
MDA-N = system: MDA-N
NCI-H23 = system: NCI-H23
NCI-H460 = system: NCI-H460
NCI-H522 = system: NCI-H522
OVCAR-3 = system: OVCAR-3
SK-MEL-5 = system: SK-MEL-5
SN12C = system: SN12C
SNB-75 = system: SNB-75
SW-620 = system: SW-620
UO-31 = system: UO-31
M14 = system: M14

Measured: GI50

COC(=O)C1=NN2c3ccccc3C(=O)OCCC2(C)C1 (stereo not given)
inactive: ACHN > 100 µM | CCRF-CEM > 100 µM | DU-145 > 100 µM | EKVX > 100 µM | HCT-116 > 100 µM | HOP-92 > 100 µM | K562 > 100 µM | MDA-MB-435 > 100 µM | MDA-N > 100 µM | NCI-H23 > 100 µM | NCI-H460 68.2 µM | NCI-H522 > 100 µM | OVCAR-3 > 100 µM | SK-MEL-5 > 100 µM | SN12C > 100 µM | SNB-75 > 100 µM | SW-620 > 100 µM | UO-31 > 100 µM

CC1(C)C/C=C\CCC(O)C(O)CCC(C)(C)C1=O (stereo not given)
inactive: ACHN > 100 µM | CCRF-CEM > 100 µM | DU-145 > 100 µM | EKVX > 100 µM | HCT-116 > 100 µM | HOP-92 > 100 µM | K562 > 100 µM | MDA-MB-435 > 100 µM | MDA-N > 100 µM | NCI-H23 > 100 µM | NCI-H460 > 100 µM | NCI-H522 62.2 µM | OVCAR-3 > 100 µM | SK-MEL-5 > 100 µM | SN12C > 100 µM | SNB-75 > 100 µM | SW-620 > 100 µM | UO-31 > 100 µM

N=C(N)NS(=O)(=O)c1ccc(Nc2c3ccccc3nc3c(C(=O)NC(CO)(CO)CO)cccc23)cc1
inactive: ACHN 11.1 µM | CCRF-CEM 4.63 µM | DU-145 32.4 µM | EKVX > 100 µM | HOP-92 14.4 µM | K562 24.2 µM | M14 30.6 µM | MDA-MB-435 24.9 µM | MDA-N 35.6 µM | NCI-H23 36.5 µM | NCI-H460 2.88 µM | NCI-H522 11.7 µM | OVCAR-3 27.5 µM | SK-MEL-5 17.5 µM | SN12C 26.5 µM | SNB-75 2.3 µM | SW-620 17.6 µM | UO-31 27.5 µM

CCOC(=O)c1nc2ccccc2nc1Oc1ccc(C(=O)OC)cc1
inactive: ACHN > 100 µM | CCRF-CEM 41.8 µM | DU-145 > 100 µM | EKVX > 100 µM | HCT-116 > 100 µM | HOP-92 > 100 µM | K562 > 100 µM | M14 > 100 µM | MDA-MB-435 > 100 µM | MDA-N > 100 µM | NCI-H460 > 100 µM | OVCAR-3 > 100 µM | SK-MEL-5 > 100 µM | SN12C > 100 µM | SNB-75 29 µM | SW-620 > 100 µM | UO-31 > 100 µM

Cn1c(=S)[nH]c(N)c(Cc2ccccc2)c1=O
inactive: ACHN > 100 µM | CCRF-CEM > 100 µM | DU-145 > 100 µM | EKVX 92.5 µM | HCT-116 > 100 µM | HOP-92 25.6 µM | K562 78.5 µM | M14 > 100 µM | MDA-MB-435 > 100 µM | MDA-N > 100 µM | NCI-H23 > 100 µM | NCI-H460 > 100 µM | OVCAR-3 > 100 µM | SK-MEL-5 > 100 µM | SN12C > 100 µM | SNB-75 20.3 µM | SW-620 > 100 µM

COC(=O)C12CCC(C)(C)CC1C1=CCC3C4(C)CC(O)C(O)C(C)(C(=O)OC)C4CCC3(C)C1(CO)CC2 (stereo not given)
inactive: ACHN 13.9 µM | CCRF-CEM 14.3 µM | DU-145 15.5 µM | EKVX 18.9 µM | HCT-116 13.7 µM | HOP-92 14.2 µM | K562 15.6 µM | M14 6.75 µM | MDA-MB-435 15.1 µM | MDA-N 13.3 µM | NCI-H23 15.5 µM | NCI-H460 15.7 µM | NCI-H522 14.9 µM | OVCAR-3 16.7 µM | SK-MEL-5 16 µM | SN12C 18.3 µM | SNB-75 11.9 µM | SW-620 11.4 µM

CC(C)=CC[C@]12CCN[C@H]1N(S(=O)(=O)c1ccccc1)c1ccccc12
inactive: ACHN 21.1 µM | CCRF-CEM 23.6 µM | DU-145 > 100 µM | EKVX 8.17 µM | HCT-116 14.4 µM | HOP-92 12.2 µM | K562 16.7 µM | MDA-MB-435 16.3 µM | MDA-N 15.2 µM | NCI-H23 > 100 µM | NCI-H460 14.5 µM | NCI-H522 13.9 µM | OVCAR-3 16.9 µM | SK-MEL-5 14.9 µM | SN12C 13.6 µM | SNB-75 17.1 µM | SW-620 18.4 µM | UO-31 13.8 µM

Cn1c2ccc3cc2c(=S)c2cc(ccc21)OCCOCCOCCOCCOCCO3
inactive: ACHN > 10 µM | CCRF-CEM > 10 µM | DU-145 > 10 µM | EKVX > 10 µM | HCT-116 > 10 µM | HOP-92 > 10 µM | K562 > 10 µM | M14 > 10 µM | MDA-MB-435 > 10 µM | MDA-N > 10 µM | NCI-H23 > 10 µM | NCI-H460 > 10 µM | NCI-H522 > 10 µM | OVCAR-3 > 10 µM | SK-MEL-5 > 10 µM | SN12C > 10 µM | SNB-75 > 10 µM | SW-620 > 10 µM

Cc1cnc(Cl)nc1C(C#N)c1nc2ccccc2n1C (stereo not given)
inactive: ACHN 66.8 µM | DU-145 > 100 µM | EKVX 6.31 µM | HCT-116 23.2 µM | HOP-92 > 100 µM | M14 > 100 µM | MDA-MB-435 > 100 µM | MDA-N > 100 µM | NCI-H23 66.7 µM | NCI-H460 46.1 µM | NCI-H522 15.1 µM | OVCAR-3 > 100 µM | SK-MEL-5 > 100 µM | SN12C > 100 µM | SNB-75 10.1 µM | SW-620 > 100 µM | UO-31 > 100 µM

COc1ccc(-c2coc3cc(OC)cc(O)c3c2=O)cc1 [4',7-DIMETHOXY-5-HYDROXYGENISTEIN]
inactive: ACHN 34.4 µM | CCRF-CEM > 100 µM | DU-145 > 100 µM | EKVX > 100 µM | HCT-116 > 100 µM | HOP-92 7.41 µM | K562 > 100 µM | M14 52.7 µM | MDA-MB-435 > 100 µM | MDA-N > 100 µM | NCI-H23 30.8 µM | NCI-H460 > 100 µM | NCI-H522 > 100 µM | OVCAR-3 > 100 µM | SK-MEL-5 > 100 µM | SN12C > 100 µM | SNB-75 > 100 µM | SW-620 > 100 µM

O=C(Nc1ncc([N+](=O)[O-])s1)c1ccccc1O [TIZOXANIDE]
inactive: ACHN 18.7 µM | DU-145 21 µM | EKVX 16.5 µM | HCT-116 11.1 µM | HOP-92 2.74 µM | K562 28.2 µM | M14 20 µM | MDA-MB-435 22.6 µM | MDA-N 27 µM | NCI-H23 12.5 µM | NCI-H460 18 µM | NCI-H522 3.13 µM | OVCAR-3 6.84 µM | SK-MEL-5 15.2 µM | SN12C 17.5 µM | SNB-75 18.1 µM | SW-620 34.1 µM | UO-31 23.7 µM
